In patent US20130338092A1, “COMPOUNDS AND METHODS FOR TARGETING LEUKEMIC STEM CELLS” (The Broad Institute, Inc., priority 2011, published 2013):
Entries after “also recorded” stand apart in the source; their conditions may differ. Like-named read-outs stand apart in the source and are kept apart here.

How the values were obtained:
[1] = tested on: primary leukemia cells; assay: Annexin V apoptosis assay; format: cell-based, murine; conditions: 22 hours in suspension, compared to DMSO control
Experimental: Compounds were added to a final DMSO concentration of 0.02%. […] The cells were analyzed by flow cytometry on a FacsCanto II (Becton Dickinson).

[2] = tested on: CD34+ cells from primary human leukemia samples; assay: Human CD34+ CAFC assay, leukemia samples; format: cell-based; conditions: 1.25 μM to 10 μM, 18 hours exposure, read at 5 weeks (2 weeks FLT3-ITD)
Experimental: Samples were centrifuged over Ficoll-Paque PLUS (GE Heathcare) step gradient (2000×g for 30 min in 50 ml tubes) to obtain mononuclear cells and then CD34^+ cells were selected with immunomagnetic beads (MACS Cell Separation, Miltenyi Biotec, Auburn, Calif.), except in one case, NPM1 mutation, which was CD34^− by flow cytometry and mononuclear cells were used. 50,000 cells were placed into 12.5 cm^2 flasks (Becton Dickinson Labware, Franklin Lakes, N.J.) in co-culture with the MS-5 mouse bone marrow-derived stromal cell line (kindly provided by Dr. Itoh, Dept. of Biology, Niigata University, Japan) and DMSO control and the number of final cobblestones was later read. The number of cells needed to form one cobblestone was then placed in triplicate for each sample with each drug at serial drug dilutions from 10 μM to 0.63 μM as well as with DMSO 0.5% for control purposes and incubated overnight with Iscove's modified Dulbecco's medium (IMDM, in house media preparation laboratory)+20% fetal calf serum (FCS, Atlanta Biologicals, Lawrenceville, Ga.) with glutamine (2 mM/ml, in house media preparation laboratory), monothioglycerol (MTG, 10 nM/ml, Sigma Cell Culture, St. Louis Mo.), c-Kit ligand (20 ng/ml, Amgen, Thousand Oaks, Calif.), Flt ligand (20 ng/ml, Imclone, Bridgewater, N.J.), TPO (20 ng/ml, Amgen) and IL-3 (20 ng/ml, Amgen). Cells were then washed to remove the drugs and placed into 96 well cell culture plates (Becton Dickinson) with α-MEM (in house media preparation laboratory)+12.5% FCS+12.5% horse serum (Gemini Bio-products, West Sacramento, Calif.) with glutamine, MTG, hydrocortisone (1 nM/ml, Sigma) and IL-3 in co-culture with MS-5 stromal cells. […] The same procedure was followed with normal CD34+ cells obtained from cord blood.
The cells were treated with compound or DMSO carrier control at four doses (ranging from 1.25 μM to 10 μM) in triplicate for 18 hours, washed thoroughly, then plated onto human stromal MS-5 monolayers (Itoh, K., Tezuka, H., Sakoda, H., Konno, M., Nagata, K., Uchiyama, T., Uchino, H., and Mori, K. J. (1989). Exp Hematol 17, 145-153.) and maintained in coculture with one subsequent half media change. After 5 weeks (2 weeks for the FLT3-ITD sample (Moore, M. A., Dorn, D. C., Schuring a, J. J., Chung, K. Y., and Morrone, G. (2007). Exp Hematol 35, 105-116.)), cobblestone formation was determined, and dose-response curves against the 7 cell types were generated for each compound.

[3] = tested on: MLL-AF9 LSC; assay: Triple coculture (LSCs and HSPCs on primary MSCs), leukemia cells; format: cell-based, murine; conditions: for leukemic cells in triple coculture: 200 nM lovastatic acid or 1 μM BRD7116, 5 days; for IC50: Mus musculus, MLL-AF9, murine LSCs in triple coculture with HSPCs on MSCs
Experimental: As in the original assay approach, treatment of these triple cocultures began one day after hematopoietic cell plating and was assessed 5 days later.
An in vitro therapeutic index was determined for each compound, a comparative measure of the potential for anti-LSC efficacy relative to the potential for dose-limiting toxicities to normal HSCs (myeloablation), or to normal progenitors (myelosuppression). Specifically, ratios were created using the IC50s for primary murine HSPCs in triple coculture as the numerator, and the IC50s for primary murine leukemia inhibition in triple coculture as the denominator, toward assessing the potential for HSC harm relative to LSC inhibition.

[4] = tested on: normal primary human CD34+ cells; assay: Alamar Blue assay for human progenitor cell toxicity; conditions: for IC50: Homo sapiens, 168 h, read-out: Normal Progenitor* IC50
Experimental: Normal G-CSF mobilized CD34+ cells (AllCells, LLC, Emeryville, Calif.), normal BM CD34 cells (MSKCC, New York, N.Y.) and cord blood CD34+ cells (New York Blood Center, New York) were previously frozen and thawed out before the proliferation assay was set up in 384-well plates. Briefly, 50 μl of IMDM medium containing 20% FBS (Gemini Bio-Product, West Sacramento, Calif.), 20 ng/ml of recombinant human Kit Ligand (rhKL), 20 ng/ml of rh-Interleukin-3 (rhIL-3), 20 ng/ml of rhG-CSF, 6 units/ml of rhEPO, 10-42-mercaptoethanol, 2 mM glutamine, 50 u/ml penicillin, 50 μg/ml streptomycin, 1,000 viable CD34+ cells in the presence of various doses of Broad compounds (drug-treated group) or 0.1% DMSO (control group) were incubated at 37° C. After 6 days, 5 μl of AlamaBlue (AbD Serotec, Raleigh, N.C.) was added to each well and further incubated overnight. The fluorescence signal was then measured with GeminiXS microplate reader (Molecular Devices, Sunnyvale, Calif.). Effect of small molecules to proliferation of CD34+ cells was reported as Relative fluorescent intensity (Relative Fluorescent Intensity=Fluorescent Intensity (drug-treated)/Fluorescent Intensity (Control).
Finally, experiments were performed to examine whether BRD7116 or lovastatic acid were likely to cause myelosuppression, a type of deleterious toxicity in patients resulting from harm to normal human hematopoietic progenitor cells. This consideration is especially important as conventional therapies currently used in the clinic have myelosuppressive toxicities that are dose-limiting. To this end, a hematopoietic progenitor assay was employed to compare the effects of BRD7116 and lovastatic acid to effects given by such known myelosuppressive compounds. In this assay, normal primary human CD34^+ cord blood cells were plated with cytokines in suspension, treated with compound for 7 days, and then examined for viability relative to DMSO treated controls.

[5] = tested on: human AML cell lines (U937, THP-1, NOMO-1, SKM-1, NB4, and OCI-AML3); assay: AML cell line screen (CellTiter-Glo); format: cell-based
Experimental: Nomo-1, THP-1, SKM-1, NB4, and U937 cell lines were grown in RPMI (12-702F, BioWhittaker), 10% FBS (10082-147, Gibco), and 1% Pen-Strep (15140-122, Gibco) and OCI-AML3 was grown in α-MEM (36453, Stem Cell Technologies), 10% FBS (10082-147, Gibco), and 1% Pen-Strep (15140-122, Gibco). 3000 cells were plated in each well in 30 μl in white, 384 well plates (3570, Corning) and 16 hours later 100 nl of the appropriate compound was added to each well. 72 hours later the plates were cooled to room temperature and 30 μl of CellTiterGlo reagent (G7570, Promega) diluted 1:1 in PBS was added to each well and the plates were analyzed using an Envision (Perkin Elmer).
First, a traditional small molecule screen was performed on six human AML cell lines (U937, THP-1, NOMO-1, SKM-1, NB4, and OCI-AML3), two of which (NOMO-1, THP-1) contain the same oncogene (MLL-AF9) used to generate the primary leukemia cells utilized in our coculture system. The cell lines were grown in isolation under standard conditions, treated with the 160 compounds at 8-point dose, and three days later the viability of each well was quantified using CellTiter-Glo reagent. The IC50s from these AML cell line screens were then compared to the IC50s from the coculture screens. […] As discussed, the existence of such differentially-active compounds is consistent with our hypothesis that coculturing can expand the pool of therapeutically promising compounds identified in high throughput format.

[6] = tested on: normal HSPCs; assay: Normal HSPC coculture on primary MSC stroma; conditions: for IC50: Mus musculus
Experimental: The material was cleaned, crushed and sequentially passed through 100 and 70 μM filters (Falcon). […] The biotin-labeled cells were spun down, resuspended in 0.5% FBS in PBS, and incubated for 15-30 minutes at 4° C. with agitation with 1 mL of Dynabead M-280 streptavidin-linked magnetic beads per 4 mice. The bead-linked cells were depleted using magnetic separation and rinsed once. The lineage- and CD48-depleted cell fraction was labeled with streptavidin-APC-Cy7 antibody from BD Biosciences and c-kit-APC, Sca-1-FITC, CD48-Pacific Blue, and CD150 PE-Cy7 antibodies from eBioscience. DsRed-positive lineage-Sca-1+c-kit+CD48− HSCs were sorted using a FACS DiVa or FACS ARIA (BD Biosciences).
A total of 20 μL of 20 μg/mL fibronectin (Millipore) in PBS was added to each well of a 384-well clear-bottomed black tissue-culture treated plate (Corning) and incubated for 30-120 minutes at 33° C. or 37° C. […] The fibronectin solution was removed from each well using a 24-channel wand aspirator; then 30 μL of BMSC solution was added to plate 2000 BMSCs/well. […] Each plate was covered with a sterile rayon breathable membrane (VWR) and plastic lid, and then spun at 500 rpm (approximately 60× gravity) with slow braking. The plates were incubated at room temperature for 60-90 minutes before incubation at 33° C. with 5% CO2 for 3 days prior to HSC addition.
The sorted HSCs, SLAMs and progenitor cells were resuspended in phenol-red free alpha-MEM with 20% FBS and diluted to 10,000 cells/mL. A total of 20 μL of cell solution containing 200 hematopoietic cells was added to each well using a multichannel pipettor or liquid-dispensing system. Each plate was covered with a sterile rayon breathable membrane (VWR) and plastic lid, and then spun at 500 rpm (approximately 60×gravity) with slow braking. The plates were incubated at room temperature for 60-90 minutes before incubation at 33° C. with 5% CO2 overnight prior to compound or cytokine addition.
Image analysis was performed using MetaXpress software from MDC and CellProfiler software from the Broad Institute of Harvard and MIT.
Compound addition and incubation was performed as described for the LSC coculture screen above, but without a media change or readdition of the compound.
The selected set was screened in 8-point dose against both normal HSPCs with a high number of replicates (6) and LSC-enriched leukemia cells, each cocultured on primary MSCs.

[7] = read-out: Normal IC50, HSPCs on primary MSC stroma, 8-point dose

SMILES | induction of apoptosis (Annexin V) [1] | leukemia cobblestone inhibition (human CAFC) [2] | leukemic cells in triple coculture [3] | IC50 [3] [µM] | toxicity to hematopoietic progenitor cells [4] | IC50 [4] [µM] | inhibition of AML cell lines at maximal doses ([5]; of the positive control) [%] | inhibition of AML cell lines ([5]; relative to DMSO control, concentrations greater than 30 μM) | IC50 [6, 7] [µM] | leukemic cells in triple coculture ([3]; listed as lovastatin) | activity against AML cell lines [5] | IC50 ([5]; Homo sapiens, read-out: IC50 across the AML cell lines) [µM] | IC50 ([6]; read-out: Normal IC50, statins (acid form), HSPCs cocultured on primary MSC stroma) [µM] | effect on normal HSPCs in coculture ([6]; up to 20 μM, the maximum dose tested)
CC1(C)C(C(=O)Nc2ccc(S(=O)(=O)c3ccc(NC(=O)C4C(C)(C)C4(C)C)cc3)cc2)C1(C)C [BRD7116] | mild induction of apoptosis | leukemia cobblestone inhibition was observed across all six primary leukemia samples | selective loss of the leukemia population; also recorded: selectively cleared the dsRed^+ leukemic cells | 0.5 | minimal toxicity | 10 | 50 | roughly 50% | > 20 |  |  |  |  | 
CCC(C)C(=O)OC1CC(C)C=C2C=CC(C)C(CCC(O)CC(O)CC(=O)O)C21 (stereo not drawn) [Lovastatic acid] | underwent apoptosis | leukemia cobblestone inhibition was observed across all six primary leukemia samples | selectively cleared the dsRed^+ leukemic cells | 0.1 | minimal toxicity | 10 |  |  | > 20 | selective loss of the leukemia population | only weak activity | > 10 | > 10 | minimal toxicity
